{
  "source": "ChEMBL document CHEMBL2074261",
  "about": "“Transcellular transport of organic anions across a double-transfected Madin-Darby canine kidney II cell monolayer expressing both human organic anion-transporting polypeptide (OATP2/SLC21A6) and Multidrug resistance-associated protein 2 (MRP2/ABCC2)” (J Biol Chem, 2002)",
  "molecular_target": "Canalicular multispecific organic anion transporter 1/Solute carrier organic anion transporter family member 1B1 (Homo sapiens, UniProt Q92887+Q9Y6L6)",
  "test": "TP_TRANSPORTER: transepithelial transport (basal to apical) in MRP2- and OATP-C-expressing MDCKII cells",
  "type": "functional, cell-based",
  "settings": "dog, mdck-ii",
  "data": [
    {"smiles": "CC[C@H](C)C(=O)O[C@H]1C[C@H](O)C=C2C=C[C@H](C)[C@H](CC[C@@H](O)C[C@@H](O)CC(=O)O)[C@H]21", "note": "[PRAVASTATIN]", "values": [
      {"measurement": "Activity", "value": "substrate [+]"}
    ]},
    {"smiles": "C[C@H](CCC(=O)NCCS(=O)(=O)O)C1CC[C@H]2[C@@H]3CC[C@@H]4C[C@H](OS(=O)(=O)O)CC[C@]4(C)[C@H]3CC[C@]12C", "note": "(some centres not stated)", "values": [
      {"measurement": "Activity", "value": "substrate [+]"}
    ]}
  ]
}
